From patent publication US7166598B2, “Piperazine derivatives” (Astellas Pharma Inc., priority 1998, dated 2007)

Row | melting point | SMILES
1 | 162 to 178 °C | CSc1cc(C(=O)N2CCN(CCN3C[C@@H](C)O[C@@H](C)C3)C[C@H]2Cc2ccc(Cl)c(O)c2)cc(C(F)(F)F)c1.Cl.Cl
2 | 189 to 194 °C | Cl.Cl.Cl.O=C(c1cc(C(F)(F)F)cc(C(F)(F)F)c1)N1CCN(CCN2CCc3ncccc3C2)C[C@H]1Cc1ccc2ccccc2c1
3 | 206 to 224.5 °C | COC[C@@H]1CN(CCN2CCN(C(=O)c3cc(C(F)(F)F)cc(C(F)(F)F)c3)[C@H](Cc3ccc(C)c(O)c3)C2)CCO1.Cl.Cl [Example 13]
4 | 173 to 183 °C | COc1cc(C(=O)N2CCN(CCN3CCc4ncccc4C3)C[C@H]2Cc2ccc3ccccc3c2)cc(C(F)(F)F)c1.Cl.Cl.Cl
5 | 163 to 178 °C | COc1cc(C[C@@H]2CN(CCN3CC4CCC(C3)O4)CCN2C(=O)c2cc(C(F)(F)F)cc(C(F)(F)F)c2)ccc1F.Cl.Cl
6 | 152.7 to 157.9 °C | C[C@@H]1CN(CCN2CCN(C(=O)c3cc(-n4cccc4)cc(C(F)(F)F)c3)[C@H](Cc3ccc(Cl)cc3)C2)C[C@H](C)O1.Cl.Cl
7 | 245.6 to 248.7 °C | CNc1cc(C(=O)N2CCN(CCN3C[C@@H](C)O[C@@H](C)C3)C[C@H]2Cc2ccc(Cl)cc2)cc(C(F)(F)F)c1.Cl.Cl
8 | 110 to 130 °C | CC1(C)COCCN1CC#CCN1CCN(C(=O)c2cc(C(F)(F)F)cc(C(F)(F)F)c2)[C@H](Cc2ccc(C(F)(F)F)cc2)C1.Cl.Cl
9 | 147 to 151 °C | COC[C@H]1CCC[C@@H](COC)N1CCN1CCN(C(=O)c2cc(C(F)(F)F)cc(C(F)(F)F)c2)[C@H](Cc2ccc(C(F)(F)F)cc2)C1.Cl.Cl
10 | 81.4 to 84.3 °C | COc1cc(C(=O)N2CCN(Cc3cccnc3)C[C@H]2Cc2ccc(F)cc2)cc(C(F)(F)F)c1.Cl.Cl
11 | 127 to 135 °C | COc1cc(C[C@@H]2CN(Cc3cnn(C)c3)CCN2C(=O)c2cc(C(F)(F)F)cc(C(F)(F)F)c2)ccc1F.Cl
12 | 135 to 140 °C | COC[C@@H]1CN(CCN2CCN(C(=O)c3cc(OC)cc(C(F)(F)F)c3)[C@H](Cc3ccc(C(F)(F)F)c(OC)c3)C2)CCO1.Cl.Cl
13 | 198 to 223 °C | Cl.Cl.O=C(c1cc(C(F)(F)F)cc(C(F)(F)F)c1)N1CCN(Cc2cccnc2)C[C@H]1Cc1ccc(C(F)(F)F)cc1
14 | 140 to 150 °C | COc1cc(C(=O)N2CCN(Cc3cnn(C)c3)C[C@H]2Cc2ccc(Cl)c(O)c2)cc(C(F)(F)F)c1.Cl
15 | 140 to 150 °C | Cc1ccc(C[C@@H]2CN(Cc3nc(N(C)C)no3)CCN2C(=O)c2cc(C(F)(F)F)cc(C(F)(F)F)c2)cc1O.Cl.Cl
16 | 236.8 to 248.5 °C | COc1cc(C[C@@H]2CN(CCN3CCc4ncccc4C3)CCN2C(=O)c2cc(-c3ccncc3)cc(C(F)(F)F)c2)ccc1F.Cl.Cl.Cl.Cl
17 | 60 to 100 °C | COc1cc(C(=O)N2CCN(CCCc3cccnc3)C[C@H]2Cc2ccc(Cl)cc2)cc(C(F)(F)F)c1.Cl.Cl
18 | 172 to 175 °C | C[C@@H]1CN(CCN2CCN(C(=O)c3cc(C(F)(F)F)cc(C(F)(F)F)c3)[C@H](Cc3ccc(Cl)c(O)c3)C2)C[C@H](C)O1.Cl.Cl

Continued, molecule first:

Row | SMILES | melting point
19 | CNc1cc(C(=O)N2CCN(CCN3CCc4ncccc4C3)C[C@H]2Cc2ccc(Cl)cc2)cc(C(F)(F)F)c1.Cl.Cl.Cl | 199 to 245 °C
20 | O=C(c1cc(C(F)(F)F)cc(C(F)(F)F)c1)N1CCN(CC#Cc2cccnc2)C[C@H]1Cc1ccc(C(F)(F)F)cc1 [Example 9-(53), (2R)-1-[3,5-Bis(trifluoromethyl)benzoyl]-4-[3-(3-pyridyl)-2-propynyl]-2-[4-(trifluoromethyl)benzyl]-piperazine] | 142 to 143 °C
21 | C[C@@H]1CN(CCN2CCN(C(=O)c3cc([N+](=O)[O-])cc(C(F)(F)F)c3)[C@H](Cc3ccc(Cl)cc3)C2)C[C@H](C)O1.Cl.Cl | 133.3 to 136.2 °C
22 | COC[C@@H]1CN(CCN2CCN(C(=O)c3cc(C(F)(F)F)cc(S(C)(=O)=O)c3)[C@H](Cc3ccc(C)c(O)c3)C2)CCO1.Cl.Cl | 173.5 to 178 °C
23 | COC[C@@H]1CN(CC#CCN2CCN(C(=O)c3cc(C(F)(F)F)cc(C(F)(F)F)c3)[C@H](Cc3ccc(C)c(O)c3)C2)CCO1.Cl.Cl | 110 to 130 °C
24 | COc1cc(C(=O)N2CCN(Cc3cnn(C)c3)C[C@H]2Cc2ccc(F)cc2)cc(C(F)(F)F)c1.Cl | 225.6 to 228.4 °C
25 | C[C@@H]1CN(CCN2CCN(C(=O)c3cc(Cl)cc(C(F)(F)F)c3)[C@H](Cc3ccc(Cl)c(O)c3)C2)C[C@H](C)O1.Cl.Cl | 196 to 199 °C
26 | COc1cc(C(=O)N2CCN(CCN3CCC(F)(F)CC3)C[C@H]2Cc2ccc3ccccc3c2)cc(C(F)(F)F)c1.Cl.Cl | 243 to 260 °C
27 | COC[C@@H]1CN(CCN2CCN(C(=O)c3cc([N+](=O)[O-])cc(C(F)(F)F)c3)[C@H](Cc3ccc(C)c(O)c3)C2)CCO1.Cl.Cl | 181 to 185 °C
28 | COC[C@@H]1CN(CCN2CCN(C(=O)c3cc(C(F)(F)F)cc(C(F)(F)F)c3)[C@H](Cc3ccc(C)c(N4CCCC4)c3)C2)CCO1.Cl.Cl.Cl | 160 to 165 °C
29 | COC[C@@H]1CN(CCCN2CCN(C(=O)c3cc(C(F)(F)F)cc(C(F)(F)F)c3)[C@H](Cc3ccc(C)c(O)c3)C2)CCO1.Cl.Cl | 150 to 170 °C
30 | Cl.Cl.O=C(c1cc(C(F)(F)F)cc(C(F)(F)F)c1)N1CCN(CCN2C[C@H](O)[C@@H](O)C2)C[C@H]1Cc1ccc(C(F)(F)F)cc1 | 154 to 159 °C
31 | C[C@@H]1CN(CCN2CCN(C(=O)c3cc(Cl)cc(Cl)c3)[C@H](Cc3ccc(Cl)cc3)C2)C[C@H](C)O1.Cl.Cl | 140.1 to 143.8 °C
32 | C[C@@H]1CN(CCN2CCN(C(=O)c3cc(C(F)(F)F)cc(C(F)(F)F)c3)[C@H](Cc3ccc(F)c(O)c3)C2)C[C@H](C)O1.Cl.Cl | 170 to 195 °C
33 | Cc1ccc(C[C@@H]2CN(Cc3ccc4ncccc4c3)CCN2C(=O)c2cc(C(F)(F)F)cc(C(F)(F)F)c2)cc1O.Cl.Cl | 170 to 200 °C
34 | COc1cc(C[C@@H]2CN(CCN3C[C@H](OC)[C@@H](OC)C3)CCN2C(=O)c2cc(C(F)(F)F)cc(C(F)(F)F)c2)ccc1F.Cl.Cl | 112 to 120 °C
35 | Cc1cc(C(=O)N2CCN(CCN3CCc4ncccc4C3)C[C@H]2Cc2ccc(Cl)cc2)cc(C(F)(F)F)c1.Cl.Cl.Cl | 102.5 to 110.4 °C
36 | COC[C@@H]1CN(CCN2CCN(C(=O)c3cc(-n4cccc4)cc(C(F)(F)F)c3)[C@H](Cc3ccc(C)c(O)c3)C2)CCO1.Cl.Cl | 159 to 170 °C
37 | COc1cc(C(=O)N2CCN(CCN3C[C@@H](C)O[C@@H](C)C3)C[C@H]2Cc2ccc(F)cc2)cc(C(F)(F)F)c1.Cl.Cl | 70.3 to 85.2 °C
38 | COc1cc(C(=O)N2CCN(Cc3cnn(C)c3)C[C@H]2Cc2ccc3ccccc3c2)cc(C(F)(F)F)c1.Cl | 226 to 228 °C
39 | COc1cc(C[C@@H]2CN(CCN3C[C@@H](C)O[C@@H](C)C3)CCN2C(=O)c2cc(SC)cc(C(F)(F)F)c2)ccc1F.Cl.Cl | 62.5 to 82.4 °C
40 | COc1cc(C(=O)N2CCN(CC#CCN3CCOCC3(C)C)C[C@H]2Cc2ccc(Cl)c(O)c2)cc(C(F)(F)F)c1.Cl.Cl | 187 to 195 °C
41 | Cc1ccc(C[C@@H]2CN(CCN3[C@@H](C)COC[C@@H]3C)CCN2C(=O)c2cc(C(F)(F)F)cc(C(F)(F)F)c2)cc1O.Cl.Cl | 240 to 250 °C
42 | C[C@@H]1CN(CCN2CCN(C(=O)c3cc(C(F)(F)F)cc(C(F)(F)F)c3)[C@H](Cc3ccc(F)c(F)c3)C2)C[C@H](C)O1.Cl.Cl | 223 to 228 °C
